Experimental data taken from patent publication US20200170975A1 (Strongbridge Dublin Limited, priority 2018, published 2020).
Read-outs that look alike come from different tables or passages of the source.

Experiments:
[1] = target: P-gp (Homo sapiens, UniProt P08183); conditions: 120 min
[2] = target: T1, BCRP (Homo sapiens, UniProt Q9UNQ0); experiment: BCRP inhibition: bidirectional transport of prazosin across MDCKII-BCRP and control MDCKII cells; conditions: for Recovery (%) A:B / Recovery (%) B:A / % control: 120 min
T1 sequence (Q9UNQ0 1-655): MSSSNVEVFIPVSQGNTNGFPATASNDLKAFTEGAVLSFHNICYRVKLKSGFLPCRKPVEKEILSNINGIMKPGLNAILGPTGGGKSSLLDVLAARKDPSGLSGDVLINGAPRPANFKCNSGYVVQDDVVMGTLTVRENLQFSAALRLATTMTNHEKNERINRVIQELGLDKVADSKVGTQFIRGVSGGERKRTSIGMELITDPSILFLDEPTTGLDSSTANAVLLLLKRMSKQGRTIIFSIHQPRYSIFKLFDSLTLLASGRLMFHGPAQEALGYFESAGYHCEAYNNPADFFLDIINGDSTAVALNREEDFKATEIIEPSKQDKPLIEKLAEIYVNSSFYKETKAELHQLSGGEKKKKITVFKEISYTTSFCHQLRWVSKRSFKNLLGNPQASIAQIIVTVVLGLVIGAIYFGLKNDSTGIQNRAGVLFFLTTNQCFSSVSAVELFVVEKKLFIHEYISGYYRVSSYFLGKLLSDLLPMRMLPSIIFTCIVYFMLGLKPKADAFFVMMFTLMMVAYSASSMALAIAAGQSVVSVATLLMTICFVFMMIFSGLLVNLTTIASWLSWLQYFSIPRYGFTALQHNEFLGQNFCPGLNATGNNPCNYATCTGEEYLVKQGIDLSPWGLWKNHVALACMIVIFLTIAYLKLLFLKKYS
Source text: MDCKII P-gp, MDCKII BCRP and control MDCKII cells were purchased from the Netherlands Cancer Institute.

[3] = target: T2, OCT1 (Homo sapiens, UniProt O15245); conditions: for Uptake, OCT1 (Average ± SD): OCT1 HEK293 cells; for Uptake, OCT1 (Average ± SD) / % control / Background corrected uptake rate / Uptake, Control (Average ± SD): [14C]-TEA bromide 5 μM; for Uptake, Control (Average ± SD): control HEK293 cells
T2 sequence (O15245 1-554): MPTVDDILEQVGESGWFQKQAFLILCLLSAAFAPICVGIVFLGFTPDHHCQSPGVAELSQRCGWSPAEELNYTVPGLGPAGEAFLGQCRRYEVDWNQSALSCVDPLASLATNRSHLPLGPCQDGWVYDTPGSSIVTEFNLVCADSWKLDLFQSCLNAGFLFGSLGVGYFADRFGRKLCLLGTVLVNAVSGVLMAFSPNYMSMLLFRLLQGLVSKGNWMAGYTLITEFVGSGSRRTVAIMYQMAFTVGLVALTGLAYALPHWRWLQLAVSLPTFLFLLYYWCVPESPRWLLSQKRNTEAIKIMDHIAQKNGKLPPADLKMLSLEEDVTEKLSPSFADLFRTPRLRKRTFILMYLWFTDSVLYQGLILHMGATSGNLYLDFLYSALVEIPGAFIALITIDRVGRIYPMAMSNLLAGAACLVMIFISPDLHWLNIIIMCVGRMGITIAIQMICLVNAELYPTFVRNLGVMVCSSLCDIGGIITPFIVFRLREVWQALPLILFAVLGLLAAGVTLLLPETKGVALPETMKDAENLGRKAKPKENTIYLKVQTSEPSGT

[4] = target: T3, OAT4 (Homo sapiens, UniProt Q9NSA0); experiment: OAT4 inhibition: accumulation of [3H]-estrone-3-sulfate in S2 cells; type: in vitro ADME
T3 construct: expressed in transfected cells; host or cells: S2 cells
T3 sequence (Q9NSA0 1-550): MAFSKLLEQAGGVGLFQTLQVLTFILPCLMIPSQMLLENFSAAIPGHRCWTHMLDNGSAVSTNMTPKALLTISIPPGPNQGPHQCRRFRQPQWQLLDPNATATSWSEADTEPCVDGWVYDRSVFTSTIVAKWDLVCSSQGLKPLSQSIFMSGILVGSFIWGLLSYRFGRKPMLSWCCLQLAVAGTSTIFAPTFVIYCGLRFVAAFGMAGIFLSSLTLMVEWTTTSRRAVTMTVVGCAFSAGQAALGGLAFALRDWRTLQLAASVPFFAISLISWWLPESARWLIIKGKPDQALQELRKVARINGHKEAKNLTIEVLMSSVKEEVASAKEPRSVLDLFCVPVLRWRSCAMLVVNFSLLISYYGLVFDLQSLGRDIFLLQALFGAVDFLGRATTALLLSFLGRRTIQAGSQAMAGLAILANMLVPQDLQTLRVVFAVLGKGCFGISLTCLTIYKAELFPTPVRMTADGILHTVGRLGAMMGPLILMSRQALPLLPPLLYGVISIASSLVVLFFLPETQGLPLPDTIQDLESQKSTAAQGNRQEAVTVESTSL
Description: Schneider 2 (S2) cells are a commonly used Drosophila melanogaster cell lines from a primary culture of late stage (20-24 hours old) embryos from a macrophage-like lineage. S2 cells are used to express heterologous proteins, to produce proteins on a large scale, and to easily and transiently transfect with several plasmids at once to study protein interactions.
[^14C]-Metformin (1 mM) was provided as a solid and was prepared in Hank's balanced salt solution (HBSS).

[5] = cited from earlier work

Sequence of P-gp (P08183 whole entry): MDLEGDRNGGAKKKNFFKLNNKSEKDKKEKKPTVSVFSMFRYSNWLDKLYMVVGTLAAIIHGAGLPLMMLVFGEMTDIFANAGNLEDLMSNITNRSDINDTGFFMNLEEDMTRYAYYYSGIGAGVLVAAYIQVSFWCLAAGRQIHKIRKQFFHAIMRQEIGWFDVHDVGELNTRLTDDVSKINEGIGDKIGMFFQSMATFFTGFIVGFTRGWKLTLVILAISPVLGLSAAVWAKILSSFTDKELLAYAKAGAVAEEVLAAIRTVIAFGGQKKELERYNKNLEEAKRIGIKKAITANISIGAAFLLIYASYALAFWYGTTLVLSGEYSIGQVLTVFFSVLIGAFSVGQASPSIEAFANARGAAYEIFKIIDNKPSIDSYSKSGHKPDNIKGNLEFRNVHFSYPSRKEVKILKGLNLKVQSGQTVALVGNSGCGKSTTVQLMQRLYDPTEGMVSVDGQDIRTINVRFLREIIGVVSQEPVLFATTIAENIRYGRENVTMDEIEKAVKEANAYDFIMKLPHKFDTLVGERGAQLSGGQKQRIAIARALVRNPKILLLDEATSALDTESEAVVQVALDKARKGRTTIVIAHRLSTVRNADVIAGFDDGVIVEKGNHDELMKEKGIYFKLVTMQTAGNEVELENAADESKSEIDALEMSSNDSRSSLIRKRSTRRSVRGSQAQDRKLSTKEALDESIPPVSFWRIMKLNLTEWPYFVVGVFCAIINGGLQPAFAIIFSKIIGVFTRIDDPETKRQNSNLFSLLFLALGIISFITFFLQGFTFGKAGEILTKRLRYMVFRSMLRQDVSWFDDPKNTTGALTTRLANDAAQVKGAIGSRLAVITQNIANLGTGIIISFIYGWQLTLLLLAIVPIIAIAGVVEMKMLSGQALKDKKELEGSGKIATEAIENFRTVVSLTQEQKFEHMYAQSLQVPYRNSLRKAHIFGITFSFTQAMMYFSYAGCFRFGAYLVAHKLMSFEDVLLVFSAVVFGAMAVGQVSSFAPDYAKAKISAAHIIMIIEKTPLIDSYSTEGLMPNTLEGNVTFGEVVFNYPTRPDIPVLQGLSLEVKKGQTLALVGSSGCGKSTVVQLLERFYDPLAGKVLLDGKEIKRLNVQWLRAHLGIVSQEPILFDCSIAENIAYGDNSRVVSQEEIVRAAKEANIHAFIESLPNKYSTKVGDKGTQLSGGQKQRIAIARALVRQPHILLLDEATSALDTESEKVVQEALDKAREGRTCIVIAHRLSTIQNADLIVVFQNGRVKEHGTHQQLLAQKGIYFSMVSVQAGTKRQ

NS(=O)(=O)c1cc(Cl)c(Cl)c(S(N)(=O)=O)c1 [Dichlorphenamide, 4,5-dichloro-1,3-benzenedisulfonamide]
% control ([1]; 3 μM): 74.0%
% control ([1]; 10 μM): 98.2%
% control ([1]; 30 μM): 89.8%
% control ([1]; 100 μM): 79.2%
% control ([1]; 300 μM): 275%
% control ([1]; 1000 μM): 127%
IC50 [2]: > 1000 µM
Recovery (%) A:B ([2]; dog, MDCK, 1000 μM): 84.7%
Recovery (%) B:A ([2]; dog, MDCK, 1000 μM): 77.0%
% control ([2]; human, 3 μM): 124%
% control ([2]; human, 10 μM): 91.4%
% control ([2]; human, 30 μM): 83.3%
% control ([2]; human, 100 μM): 91.2%
% control ([2]; human, 300 μM): 91.9%
% control ([2]; human, 1000 μM): 60.0%
Recovery (%) A:B ([2]; human, 1000 μM): 93.0%
Recovery (%) B:A ([2]; human, 1000 μM): 83.7%
Uptake, OCT1 (Average ± SD) ([3]; inhibitor 1 μm): 121 ± 11 pmol/mg protein
Uptake, OCT1 (Average ± SD) ([3]; inhibitor 3 μm): 125 ± 5 pmol/mg protein
Uptake, OCT1 (Average ± SD) ([3]; inhibitor 10 μm): 111 ± 4 pmol/mg protein
Uptake, OCT1 (Average ± SD) ([3]; inhibitor 30 μm): 122 ± 14 pmol/mg protein
Uptake, OCT1 (Average ± SD) ([3]; inhibitor 100 μm): 128 ± 6 pmol/mg protein
Uptake, OCT1 (Average ± SD) ([3]; inhibitor 300 μm): 130 ± 10 pmol/mg protein
Uptake, OCT1 (Average ± SD) ([3]; inhibitor 1000 μm): 77.9 ± 3.0 pmol/mg protein
% control ([3]; inhibitor 1 μm): 98.6%
Background corrected uptake rate ([3]; inhibitor 1 μm): 7.76 pmol/mg/min
% control ([3]; inhibitor 3 μm): 102%
Background corrected uptake rate ([3]; inhibitor 3 μm): 8.07 pmol/mg/min
% control ([3]; inhibitor 10 μm): 90.6%
Background corrected uptake rate ([3]; inhibitor 10 μm): 7.13 pmol/mg/min
% control ([3]; inhibitor 30 μm): 99.7%
Background corrected uptake rate ([3]; inhibitor 30 μm): 7.85 pmol/mg/min
% control ([3]; inhibitor 100 μm): 105%
Background corrected uptake rate ([3]; inhibitor 100 μm): 8.26 pmol/mg/min
% control ([3]; inhibitor 300 μm): 107%
Background corrected uptake rate ([3]; inhibitor 300 μm): 8.40 pmol/mg/min
% control ([3]; inhibitor 1000 μm): 63.5%
Background corrected uptake rate ([3]; inhibitor 1000 μm): 5.00 pmol/mg/min
Uptake, Control (Average ± SD) ([3]; inhibitor 1 μm): 4.28 ± 1.48 pmol/mg protein
Uptake, Control (Average ± SD) ([3]; inhibitor 3 μm): 4.44 ± 1.97 pmol/mg protein
Uptake, Control (Average ± SD) ([3]; inhibitor 10 μm): 4.28 ± 0.92 pmol/mg protein
Uptake, Control (Average ± SD) ([3]; inhibitor 30 μm): 3.88 ± 0.48 pmol/mg protein
Uptake, Control (Average ± SD) ([3]; inhibitor 100 μm): 4.12 ± 0.73 pmol/mg protein
Uptake, Control (Average ± SD) ([3]; inhibitor 300 μm): 3.88 ± 1.11 pmol/mg protein
Uptake, Control (Average ± SD) ([3]; inhibitor 1000 μm): 2.99 ± 1.46 pmol/mg protein
IC50 ([3]; human, pH 7.4): > 1000 µM
IC50 [4]: > 1000 µM
solubility in dilute solutions of sodium carbonate and sodium hydroxide ([5]; dilute solutions of sodium carbonate and sodium hydroxide): soluble
stability of dilute alkaline solutions ([5]; room temperature): stable
solubility in water ([5]; water): very slightly soluble
